{
  "source": "patent US20250109120A1",
  "about": "“INDOLINE DERIVATIVES FOR TREATMENT AND/OR PREVENTION OF TUMOR OR CELL PROLIFERATIVE AND FIBROSIS DISEASES” (NATIONAL TAIWAN UNIVERSITY, priority 2023, published 2025)",
  "type_in_all_cases": "cell-based, human",
  "key": {"prostate cancer cells": {"test_system": "prostate cancer cells", "test": "Transwell migration assay", "details": "both prostate cancer cells"}, "A549 cells [1]": {"test_system": "A549 cells", "test": "TGF-β1-induced oxidative stress (MDA, Nox4)", "details": "compounds 2 μM, TGF-β1 10 ng/ml 24 h", "experimental": "A549 cells were incubated with compounds k, b, a (2 μM), senexin A (5 μM), or pirfenidone (1 mM) for 1 h, followed by treatment with 10 ng/ml TGF-β1 for a further 24 h. Malondialdehyde (MDA) (FIG. 10A) and Nox4 (FIG. 10B) levels were detected. ***p<0.001 compared to the control group; #p<0.05, ##p<0.01, and ###p<0.001 compared to the TGF-β1-treated group.\nAn end product of lipid peroxidation, malondialdehyde (MDA), was measured by spectrophotometry at a wavelength of 532 nm using malondialdehyde bis(dimethyl acetal) as the standard as per the assay protocol (Cell Biolabs, USA)."}, "[2]": {"test_system": "CDH1 reporter in DU145 cells", "test": "7TFP CDH1 reporter luciferase assay", "details": "TGF-β1 10 ng/mL, 24 h"}, "[3]": {"test_system": "STAT1-S727 phosphorylation (CDK8/19 kinase activity)", "test": "STAT1-S727 phosphorylation western blot in DU145/PC-3 cells", "experimental": "FIGS. 2A-2D show the evaluation of CDK8 inhibition by compound k. […] Cell viability was measured by MTT assay, and the 50% inhibitory concentration (IC50) values were calculated by a sigmoidal dose-response equation. […] Whole-cell lysates were subjected to western blotting with the indicated antibodies. The results are shown as the mean t SEM from at least three independent experiments (*p<0.05, **p<0.01, and ***p<0.001 vs. control group; #p<0.05 vs. relevant control).\nThe cells were incubated in lysis buffer for 10 min at 4° C., scraped off, incubated on ice for an additional 10 min and then centrifuged at 17,000 g for 30 min at 4° C. Protein samples were electrophoresed on SDS-PAGE gels, transferred to PVDF membranes and blocked with 5% fat-free milk in PBS for 30 min at room temperature. Immunoblotting was performed overnight with primary antibodies in PBS at 4° C., followed by incubation with HRP-conjugated secondary antibodies for 1 h at room temperature. Bound antibodies will be measured using an ECL reagent and exposed to a photographic film. In the immunoprecipitation assay, cell lysates were immunoprecipitated with 1 μg of antibody and A/G agarose beads overnight at 4° C. After washing the precipitated beads three times with 1 mL ice-cold cell lysis buffer, bound immune complexes were separated by 10% SDS-PAGE and analyzed with immunoblotting."}, "A549 cells [4]": {"test_system": "A549 cells", "test": "Nuclear p-Smad3 T179 and RNA polymerase II pS2/S5 after TGF-β1, fractionation and western blot", "details": "compound k 5 μM, senexin A 5 μM, pirfenidone 1 mM; TGF-β1 10 ng/ml 3 h", "experimental": "FIGS. 8A-8B show the inhibitory effects of cellular distributions of TGF-β1-induced p-Smad3 T179, RNA polymerase II pS2/S5, and Smad3 after treatment with compound k. Human alveolar epithelial A549 cells were incubated with compound k (5 μM), senexin A (5 μM), or pirfenidone (1 mM) for 1 h, followed by stimulation with TGF-β1 (10 ng/ml) for 3 h. Protein expressions in the cytoplasmic and nuclear fractions were subjected to a Western blot analysis using the indicated antibodies. α-Tubulin and histone H3 served as loading controls for the cytoplasmic and nuclear fractions, respectively. Results are shown as the mean±SEM of three independent experiments. **p<0.01 and ***p<0.001 compared to the control group; #p<0.05 and ##p<0.01 compared to the TGF-β1-treated group.\n(§1) Cells (106) were incubated for 10 min at 4° C. in lysis buffer (20 mM HEPES at pH 7.4, 2 mM EGTA, 50 mM β-glycerophosphate, 0.1% Triton X-100, 10% glycerol, 1 mM DTT, 1 μg/mL of leupeptin, 5 μg/mL of aprotinin, 1 mM phenylmethylsulfonyl fluoride, and 1 mM sodium orthovanadate), scraped off, incubated on ice for an additional 10 min, and centrifuged at 17,000 g for 30 min at 4° C. Protein samples (20 μg) were then electrophoresed on SDS-polyacrylamide gel electrophoresis (PAGE) gels and transferred to a nitrocellulose membrane, which was then blocked by incubation for 30 min at room temperature with 5% bovine serum albumin (BSA) in Tris-buffered saline with 0.1% Tween-20 (TBST). Immunoblotting was performed by overnight incubation at 4° C. with primary antibodies in TBST, followed by incubation for 1 h at room temperature with horseradish peroxidase (HRP)-conjugated secondary antibodies. Bound antibodies were measured using enhanced chemiluminescence (ECL) reagent (GE Healthcare, UK) and exposed to photographic film.\nA Nuclear/Cytosol Fractionation Kit (Biovision, USA) was used to separate the cytosolic and nuclear fractions. […]"}, "A549 cells [5]": {"test_system": "A549 cells", "test": "TGF-β1-induced EMT protein expression, western blot", "details": "test compounds 2 μM, senexin A 5 μM, pirfenidone 1 mM; TGF-β1 10 ng/mL", "experimental": "FIGS. 4A-4B show the inhibition of epithelial-to-mesenchymal transition protein expressions by CDK8 inhibitors in human alveolar epithelial cells. […] Cell lysates were subjected to a Western blot analysis using the indicated antibodies. Results are shown as the mean t SEM from three independent experiments. *p<0.05, and ***p<0.001 compared to the control group; #p<0.05, ##p<0.01, and ###p<0.001 compared to the TGF-β1-treated group. […] Cell viabilities were determined by an MTT assay. Results are shown as the mean t SEM of three independent experiments.\nas §1"}},
  "data": [
    {"compound": "CNC(=O)c1cc(Oc2ccc(NS(=O)(=O)c3ccc4c(c3)C(=C(C)C)C(=O)N4)c(F)c2)ccn1", "note": "[Compound k, 4-(3-Fluoro-4-((2-oxo-3-(propan-2-ylidene)indoline)-5-sulfonamido)phenoxy)-N-methylpicolinamide]", "values": [
      {"measurement": "TGF-β1-triggered cell migration (transwell)", "setting": "prostate cancer cells", "result": "significantly inhibited"},
      {"measurement": "TGF-β1-caused oxidative stress (MDA and Nox4 levels)", "setting": "A549 cells [1]", "result": "markedly reduced"},
      {"measurement": "CDH1-driven luciferase expression reduced by TGF-β1", "setting": "[2]", "result": "reversed this effect to the control level"},
      {"measurement": "phosphorylation of STAT1 at Ser727", "setting": "[3]; DU145/PC-3, 24 h, concentration-dependent", "result": "suppressed"},
      {"measurement": "phosphorylation of STAT1 at Ser727 in CDK8-overexpressing cells", "setting": "[3]; pcDNA3 CDK8 HA transfected DU145 and PC-3, concentration-dependent", "result": "significantly inhibited"},
      {"measurement": "phosphorylation of p-Smad3 T179 and RNA Pol II pSer2/5", "setting": "A549 cells [4]", "result": "significantly reversed"},
      {"measurement": "TGF-β1-triggered EMT protein expressions", "setting": "A549 cells [5]", "result": "significant inhibition"}
    ]}
  ]
}
